# Experimental data as given in patent US20250003953A1, “Methods and Model Systems for Assessing Therapeutic Properties of Candidate Agents and Related Computer Readable Media and Systems” (The Regents of the University of California, priority 2021, published 2025).
# What was measured:
# [1] = test system: KRAS.G12C cell lines in a cell pool; assay: GENEVA pool gene set expression after drug, in vivo; set-up: species or system mouse; conditions: post-drug treatment
# Procedure: 2 mL of Matrigel Basement Membrane reagent was added to the GENEVA pool prepared by growth rate balancing for a final concentration of 20M/mL. One hundred microliters of this solution was injected into NSG mice in a flank xenograft injection. Twenty-four hours later, mice harboring GENEVA tumors were drugged with the drug compound in a vehicle solution of 5% DMSO, 95% Labrasol. Mice were dosed by oral gavage four fourteen days with five days on, two days off. On the fourteenth day, mice were sacrificed, tumors harvested by homogenization with surgical shears and resuspended in 5 mg/mL Liberase™ Cell Dissociation Reagent in 1:1 DMEM: F12 cell media, DNAse I (10 U/uL). Tumors were incubated in a 37° C. incubator with shaking at 600 RPMs for 45 minutes for enzymatic dissociation and then spun down at 800 g for 5 minutes at 4° C. Dissociated tumors were resuspended in 100 uL 1×PBS.
# The GENEVA datasets were compared where GENEVA pools were drugged with the KRAS.G12C inhibitor ARS1620, conducted both in vitro and in vivo. Specifically, the in vitro data were compared against the in vivo data to look for differences and similarities attributable to the context of the model systems used. […]
# For in vivo and in vitro datasets, we combined the median z score results determined in Example 8 and t-test results, respectively, were combined on a paired geneset by geneset basis. […]
# [2] = test system: KRAS.G12C cell lines in a cell pool; assay: GENEVA pool gene set expression after drug, in vitro; format: cell-based, human; conditions: post-drug treatment
# Description: The GENEVA datasets were compared where GENEVA pools were drugged with the KRAS.G12C inhibitor ARS1620, conducted both in vitro and in vivo. Specifically, the in vitro data were compared against the in vivo data to look for differences and similarities attributable to the context of the model systems used. […] As a validation study, a combination therapy multi-arm in vivo mouse study was designed to test the efficacy of an EMT inhibitor, Galunisertib in combination with ARS1620.
# For in vivo and in vitro datasets, we combined the median z score results determined in Example 8 and t-test results, respectively, were combined on a paired geneset by geneset basis. The combined zscore results table from both in vivo and in vitro was then used to calculate an “in vivo Specificity Score” as follows:
# For each geneset, “in vivo Specificity Score”=[(in vivo median zscore)−(in vitro median zscore)]/mean([log 10 (in vivo pvalue), log 10 (in vitro pvalue)]
# [3] = test system: KRAS.G12C cell line H2030; assay: Lipid peroxidation by KRAS inhibitors in KRAS.G12C line; format: cell-based, human
# Procedure: FIG. 7B plots gene expression of anti-ferroptotic genes for each cell line in response to increasing ARS1620 dosage.
# Using a lipid peroxidation live cell probe, lipid peroxidation—one of the hallmark phenotypes of ferroptosis—was measured in response to ARS-1620 treatment.
# [4] = test system: patients derived xenografts (PDX) grown as pooled organoids; assay: Cell cycle inhibition rates from GENEVA in pooled PDX; format: cell-based, human; conditions: PDX with known KRAS.G12C mutations; in vivo and ex vivo systems
# Description: Using growth-rate balanced heterogeneous cell pools adjusted for long time-course drug treatment, pools were created from four human patient-derived xenograft (PDX) models and implanted as a pooled tumor in a flank xenograft mouse model. The pooled tumors were drugged in mice by oral dosing by gavage for fourteen days with the molecule ARS-1620. After the treatment interval, tumors were harvested from mice, and single-cell RNA sequencing, genetic demultiplexing (as illustrated in Example 2), and sample hashing using barcoded antibodies was performed. Sufficient numbers of cells were observed from each PDX genetic background and drug treatment condition (FIG. 2C,D) for inference of drug phenotype and drug changes to the transcriptome. Pools from four PDX models were created for implantation for a fourteen day drug treatment in a 3D Organoid model system. […]
# Cell Cycle was calculated by regressing whole transcriptome readouts and weighting according to specified genes of interest related to different cell cycle states. Cells were assigned into G1, S, and G2/M. The cell cycle ratio was then calculated as fraction of cells per population: […]
# yielded a function where the slope was determined as the cell cycle inhibition rate, reflecting an alternative way to measure phenotype derived solely from transcriptome drug perturbation data over a long time course.
smiles,measurement,setting,value
C=CC(=O)N1CCN(c2ncnc3c(F)c(-c4c(O)cccc4F)c(Cl)cc23)CC1 [ARS1620],endothelial-mesenchymal transition hallmark gene expression signature,[1],increased in vivo
same,endothelial-mesenchymal transition hallmark gene expression signature,[2],showed no difference in vitro
same,lipid peroxidation,[3],increased lipid peroxidation
same,drug sensitivity by estimation of cell cycle inhibition rates,[4],shown to be sensitive to the compound (patients 877 and 233)
